# Assay results: patent publication EP0388528B1, “Carboximidamide derivatives” (KIRIN BEER KABUSHIKI KAISHA, priority 1988, dated 1990)
# Key:
# isolated rat aortae [1] = assay: Vasorelaxing effect on the isolated rat aortae (Referential Example 1)-1); conditions: inhibition of contraction induced by 40 mM KCl
# Method: (§1) The compounds of the present invention were tested for their physiological activities by measuring the tension of isolated rat aortae isometrically.
# Thoracic aortae obtained from male Wistar rats (weighing 250-350 g) were cut into ring segments about 3 mm long. The ring preparation was placed in an organ bath filled with 10 ml of Krebs-Ringer solution that was maintained at 37°C and gassed with 95% O₂ - 5% CO₂.
# The preparation in the organ bath was allowed to equilibrate under resting tension of 1 g. After equilibration period, the solution in the organ bath was replaced with an isotonic solution containing 40 mM KCl to contract the preparation.
# (§2) After the contraction induced by KCl had reached plateau, the concentration-response relationship for the test compound was determined by means of cumulative addition.
# (§3) The relaxation response of the test compounds was expressed as the percent inhibition of the contraction induced by KCl, and the IC₅₀ value, which is a concentration required for inhibiting the contraction induced by KCl to an extent of 50%, was calculated by the Probit method from the concentration-response curve.
# [2] = test system: spontaneous hypertensive rats (SHR); assay: Hypotensive effect on spontaneous hypertensive rats (intravenously) (Referential Example 1)-3); format: in vivo; conditions: Rattus norvegicus, iv, anesthetized SHR, dose descending mean blood pressure by 20%; read-out: ED₂₀ (mg/kg, i.v.)
# Method: (§4) Rats were anesthetized with urethane-α-chloralose (1 g/kg - 25 mg/kg; intraperitoneally). Mean blood pressure was measured by a pressure transducer through a cannula inserted into the carotid artery. The compound was cumulatively administered every 30 minutes through the cannula inserted into the jagular vein. The change in blood pressure was expressed as percent of the blood pressure before the administration of the compound. And the ED₂₀ value, which was the dose required for descending blood pressure to an extent of 20%, was calculated from the dose-response curve.
# potassium channel = assay: Potassium channel activating effect (86Rb efflux from rat thoracic aorta); conditions: compound 10⁻⁴ M for 8 minutes, percent of the efflux before application
# Method: Male Wistar rats (weighing 250-350 g) were dehematized to death, and thoracic aortae were rapidly isolated. The aorta was opened along the longitudinal axis to prepare a flat sheet. The preparation was loaded with ⁸⁶Rb in the Krebs-Ringer solution which contained ⁸⁶Rb in the concentration of 10 µCi/ml and was gassed with 95% O₂ - 5% CO₂ at 37°C for 2 hours. The preparation was then transferred to a Krebs-Ringer solution not containing ⁸⁶Rb, and washed to remove excess radioactivity for 18 minutes by refreshing the solution every 2 minutes. Finally the preparation was placed into a Krebs-Ringer solution containing each compound (10⁻⁴ M) for 8 minutes.
# The amount of ⁸⁶Rb efflux from the preparation in each period was determined with a γ-counter.
# The increment in efflux rate during the application of the compound was expressed as percent of the efflux before the application of the compound.
# isolated heart of rats = assay: Myocardiac injury induced by re-perfusion after ischemia (isolated heart of rats); conditions: 1×10⁻⁶ mole/min, after 30 minutes re-perfusion, mean ± SD
# Method: The cardiac muscle protecting effect of the compound of the present invention was tested by using the isolated heart of rats [test compound: N-cyano-N′-(2-nitroxyethyl)-3-pyridinecarboximidamide (compound (13))]. The Langendorff's method was used in the same manner as in the aforementioned Referential Example 1)-6. The isolated heart was perfused with a perfusate for 30 minutes and then with a perfusate containing the test compound for 10 minutes, and perfusion was stopped so that the heart was in the so-called "ischemic state". Pacing was performed during the ischemia. […] Parameters of cardiac function after the onset of re-perfusion was monitored for 30 minutes, and the heart was quickly freezed. The amount of ATP in the heart muscle was extracted with perchloric acid and determined by HPLC. Nicorandil was used as a control.
# The recovery rate of the cardiac function (heart rate × left ventricular pressure) after onset of reperfusion was calculated based on the cardiac function prior to the perfusion of the compound (13) and nicorandil as 100%. The amount of ATP in the heart muscle was also determined.
# isolated rat heart = assay: Effect on isolated rat heart (Langendorff's method); conditions: 1 × 10⁻⁸ mol/min, mean ± S.D.
# Method: The effect of the compound of the present invention on heart of rats was examined by using the Langendorff's method [test compound: N-cyano-N′-(2-nitroxyethyl)-3-pyridinecarboximidamide (compound (13))]. Hearts were excised from male rats (weighing 250-350 g) and perfused at 80 cmH₂O in a Langendorff fashion. Krebs-Hensaleit bicarbonate solution (pH 7.4, 37°C) containing an 11 mM glucose which was oxygenated with 95% O₂- 5% CO₂ gas mixture was used as a perfusate. The left ventricular pressure was recorded by inserting a latex baloon into the left ventricle, and heart rate was determined from the pulse of it. Coronary perfusate flow was also measured with an electromagnetic flowmeter. The experiments were carried out by perfusing a perfusate containing the compound (13) for 10 minutes after an initial equilibration period for 30 minutes. As the control compound, nicorandil which has an effect opening potassium channel and is similar to the test compound in structure was used. The changes in the coronary perfusate flow and the cardiac function (heart rate × left ventricular pressure) caused by these compounds were expressed as percent changes from the preperfusion values of the compound (13) or nicorandil.
# beagles = assay: Hemodynamic profile in beagles (intravenously); format: in vivo; conditions: peak percent change from pretreatment
# Method: Hemodynamic profile of the compound of the present invention was investigated in beagles anesthetized with pentobarbital (30 mg/kg, intravenously) [test compound: N-cyano-N′-(2-nitroxyethyl)-3-pyridinecarboximidamide (compound (13))]. The thorax was opened under artificial respiration. After administering heparin in an amount of 500 units/kg, a Moravitz's cannula was introduced into the coronary sinus via the right atrium. The coronary sinus outflow was returned to the right external jagular vein. The coronary sinus outflow was measured by an electromagnetic flowmeter (MFU-2100, manufactured by Nihon Kohden) connected to the Moravitz's cannula. A cannula was inserted into the aortic arch through the subclavian artery to measure aortic blood pressure. The aortic blood pressure was measured with a pressure transducer (Nihon Kohden, TP-200T). Heart rate was monitored with a heart rate counter with R waves of electrocardiogram. All parameters were recorded on a thermosensitive recorder (WT-685G, manufactured by Nihon Kohden).
# The compound was administered through the cannula inserted into the right femoral vein. Nicorandil was used as a control. As for respective measurement items, peak changes were expressed as percent change from the pretreatment values of the compound (13) or nicorandil.
# [3] = test system: spontaneous hypertensive rats (SHR); assay: Hypotensive effect on spontaneous hypertensive rats (intravenously) (Referential Example 2)-2); format: in vivo; conditions: Rattus norvegicus, iv, anesthetized SHR, dose decreasing mean blood pressure by 20%; read-out: ED₂₀ (mg/kg, i.v.)
# Method: as §4, with “decreasing” for “descending”
# isolated rat aortae [4] = assay: Vasorelaxing effect on the isolated rat aortae (Referential Example 2)-1); conditions: inhibition of contraction induced by 40 mM KCl, read-out: IC₅₀ Value
# Method: as §1
# Thoracic aortae obtained from male Wistar rats (weighing 250-350 g) were cut into ring segments about 3 mm long. The ring preparation was placed in an organ bath filled with 10 ml of Krebs-Ringer solution which was maintained at 37°C and gassed with 95% O₂ - 5% CO₂.
# The preparation in the organ bath was allowed to equilibrate under resting tension 1 g. After equilibration period, the solution in the organ bath was replaced with an isotonic solution containing 40 mM KCl to contract the preparation.
# as §2, §3
SMILES,IC50 (isolated rat aortae [1]) [µM],IC50 (isolated rat aortae [4]) [µM],ED20 [2] [mg/kg],other results
"N#CNC(=NCCc1ccccc1)c1cccnc1 [(27), N-cyano-N'-(2-phenylethyl)-3-pyridinecarboximidamide]",40,–,0.074,Increment of Efflux (%) (potassium channel): 206.61%
"N#CNC(=NCc1ccccc1)c1cccnc1 [(17), N-cyano-N'-benzyl-3-pyridinecarboximidamide]",66,–,0.25,Increment of Efflux (%) (potassium channel): 135.41%
"O=C(NCCO[N+](=O)[O-])c1cccnc1 [Nicorandil, nicorandil, reference compound]",–,–,–,"Amount of ATP in the heart muscle (µmole/g of dry weight) (isolated heart of rats): 5.93±0.49 (4) µmole/g of dry weight; Coronary Perfusate Flow (% change) (isolated rat heart; perfusion 10 minutes): 3.3±5.6 % change; Cardiac Function (isolated rat heart; heart rate × left ventricular pressure, percent change from preperfusion): 3.7±6.7%; Coronary Blood Flow (beagles; i.v. 100.0 µg/kg): 20.3±5.1%; Heart Rate (beagles; i.v. 100.0 µg/kg): 0.2±2.1%; Mean Aortic Blood Pressure (beagles; i.v. 100.0 µg/kg): -21.3±1.9%; Coronary Blood Flow (beagles; i.v. 300.0 µg/kg): 84.9±10.8%; Heart Rate (beagles; i.v. 300.0 µg/kg): -20.7±1.9%; Mean Aortic Blood Pressure (beagles; i.v. 300.0 µg/kg): -43.1±5.4%"
"N#CNC(=NCCc1ccccc1)c1cnc2ccccc2c1 [(60), N-cyano-N′-(2-phenylethyl)-3-quinolinecarboximidamide]",–,6.1,–,–
"N#CNC(=NCCc1ccccc1)c1ccc(C#N)cc1 [(69), N-cyano-N′-(2-phenylethyl)-4-cyanobenzenecarboximidamide]",–,40,–,–
"N#CNC(=NCCc1ccccc1Cl)c1cccnc1 [(29), N-cyano-N'-[2-(2-chlorophenyl)ethyl]-3-pyridinecarboximidamide]",38,–,0.013,–

# Second part, led by results:
IC50 (isolated rat aortae [1]) [µM],IC50 (isolated rat aortae [4]) [µM],SMILES,ED20 [2] [mg/kg],other results
12,–,"N#CNC(=NCCO[N+](=O)[O-])c1ccncc1 [(41), N-cyano-N'-(2-nitroxyethyl)-4-pyridinecarboximidamide]",0.13,Increment of Efflux (%) (potassium channel): 126.88%
4.6,–,"N#CNC(=NCCO[N+](=O)[O-])c1ccccn1 [Compound (1), N-cyano-N'-(2-nitroxyethyl)-2-pyridinecarboximidamide]",0.037,–
–,9.6,"N#CNC(=NCCO[N+](=O)[O-])c1cccs1 [(66), N-cyano-N′-(2-nitroxyethyl)-2-thiophenecarboximidamide]",–,ED20 [3]: 0.115 mg/kg
–,19,"N#CNC(=NCCc1ccccc1)c1cccs1 [(67), N-cyano-N′-(2-phenylethyl)-2-thiophenecarboximidamide]",–,–
–,26,"N#CNC(=NCCO[N+](=O)[O-])c1ccco1 [(62), N-cyano-N′-(2-nitroxyethyl)-2-furancarboximidamide]",–,ED20 [3]: 0.025 mg/kg
–,8,"N#CNC(=NCCO[N+](=O)[O-])c1ccoc1 [(64), N-cyano-N′-(2-nitroxyethyl)-3-furancarboximidamide]",–,–
–,53,"N#CNC(=NCCO[N+](=O)[O-])c1cnccn1 [(61), N-cyano-N′-(2-nitroxyethyl)pyrazinecarboximidamide]",–,–
–,4.3,"CSC(=NC#N)NCCO[N+](=O)[O-] [(70), 3-Cyano-2-methyl-1-(2-nitroxyethyl)-isothiourea]",–,–
–,94,"N#CNC(=NCCc1ccccc1)c1ccoc1 [(65), N-cyano-N′-(2-phenylethyl)-3-furancarboximidamide]",–,–
